Source: patent US20250305004A1, “ENHANCING GENE TARGETING EFFICIENCY IN HUMAN CELLS WITH DNA-PK INHIBITOR TREATMENT” (The Board of Trustees of the Leland Stanford Junior …, priority 2022, published 2025)

Columns and labels:
CCR5 locus in PSCs = test: RNP/AAV6 gene targeting at CCR5 locus, knock-in of UBC-GFP-bGHpA (2.6 kb), PSCs; format: cell-based, human; details: tested at 1, 0.1 and 0.01 μM
Procedure: (§1) Gene targeting efficiency was measured by droplet digital PCR (ddPCR) and flow cytometry (for GFP) to measure the allelic targeting efficiency (FIG. 2B) and percentage of targeted cells (FIG. 2C) respectively. […] The treatment was carried out for 24 hours post gene targeting and the efficiency was calculated 1 week post gene targeting using ddPCR analysis.
PSC culture and genome editing. […] For each nucleofection, RNP complex was prepared with 5 μg of Cas9 protein and 2 μg of gRNA and incubated for 15 mins at room temperature. PSCs were dissociated into single cells using Accutase (Innovative Cell Technologies, cat: AT104). […] Gene targeting efficiency was analyzed at 4-6 days post-editing.
(§2) ddPCR analysis of targeted integration. Gene targeting efficiency for the knock-in of multi-kb sequences was measured through digital droplet PCR (ddPCR) analysis. […] After PCR, the droplets were analyzed using the QX200 Droplet Digital PCR reader (Biorad) and Quantasoft software was used to determine the number of copies of the target and reference DNA in the droplets. The allelic gene targeting efficiency was calculated as the percentage of target DNA copies relative to that of the reference. […]
(§3) ICE analysis for quantification of gene editing. […] Following PCR, the amplicons were detected on agarose gel and purified from the gel using GeneJet Gel Extraction Kit (Thermo Fisher Scientific, cat: K0692). […]

HBB locus in PSCs = test: RNP/AAV6 gene targeting at HBB locus in PSCs; format: cell-based, human; details: UBC-GFP-bGHpA knock-in; 0.5 μM
Procedure: as §1
(§4) First, we tested the treatment for editing the sickle cell disease (SCD) and cystic fibrosis (CF) mutations at HBB and CFTR loci respectively using the previously described Cas9 RNP and AAV6 donor reagents in WT PSC^71-73 (FIG. 19a-d).
PSC culture and genome editing. […] Gene targeting efficiency was analyzed at 4-6 days post-editing.
as §2, §3

HBA1 locus in PSCs = test: RNP/AAV6 gene targeting / gene replacement at HBA1 locus in PSCs; format: cell-based, human
Procedure: as §1, §4
PSC culture and genome editing. […] For each nucleofection, RNP complex was prepared with 5 μg of Cas9 protein and 2 μg of gRNA and incubated for 15 mins at room temperature. PSCs were dissociated into single cells using Accutase (Innovative Cell Technologies, cat: AT104). […] Resuspended cells were added to one well of a 16-well Nucleocuvette Strip (Lonza) and nucleofection was performed in the 4D nucleofector (Lonza) using the program, CA137. Nucleofected PSCs were plated in mTeSR1 medium supplemented with 10 μM of Y27632 at a density of 100,000 cells per well in 48-well plate, AAV6 vector and DNA-PKcs inhibitors were added to the medium at indicated concentrations. […] From the following day, PSCs were cultured in mTeSR1 without Y27632. Gene targeting efficiency was analyzed at 4-6 days post-editing.
as §2, §3

ATM = target: T1, ATM (Homo sapiens, UniProt Q13315); details: A549 cells; cited from earlier work
T1 construct: various PI3K family kinases in A549 cells (data adapted from previous study); host or cells: A549 cells
T1 sequence (Q13315 whole entry): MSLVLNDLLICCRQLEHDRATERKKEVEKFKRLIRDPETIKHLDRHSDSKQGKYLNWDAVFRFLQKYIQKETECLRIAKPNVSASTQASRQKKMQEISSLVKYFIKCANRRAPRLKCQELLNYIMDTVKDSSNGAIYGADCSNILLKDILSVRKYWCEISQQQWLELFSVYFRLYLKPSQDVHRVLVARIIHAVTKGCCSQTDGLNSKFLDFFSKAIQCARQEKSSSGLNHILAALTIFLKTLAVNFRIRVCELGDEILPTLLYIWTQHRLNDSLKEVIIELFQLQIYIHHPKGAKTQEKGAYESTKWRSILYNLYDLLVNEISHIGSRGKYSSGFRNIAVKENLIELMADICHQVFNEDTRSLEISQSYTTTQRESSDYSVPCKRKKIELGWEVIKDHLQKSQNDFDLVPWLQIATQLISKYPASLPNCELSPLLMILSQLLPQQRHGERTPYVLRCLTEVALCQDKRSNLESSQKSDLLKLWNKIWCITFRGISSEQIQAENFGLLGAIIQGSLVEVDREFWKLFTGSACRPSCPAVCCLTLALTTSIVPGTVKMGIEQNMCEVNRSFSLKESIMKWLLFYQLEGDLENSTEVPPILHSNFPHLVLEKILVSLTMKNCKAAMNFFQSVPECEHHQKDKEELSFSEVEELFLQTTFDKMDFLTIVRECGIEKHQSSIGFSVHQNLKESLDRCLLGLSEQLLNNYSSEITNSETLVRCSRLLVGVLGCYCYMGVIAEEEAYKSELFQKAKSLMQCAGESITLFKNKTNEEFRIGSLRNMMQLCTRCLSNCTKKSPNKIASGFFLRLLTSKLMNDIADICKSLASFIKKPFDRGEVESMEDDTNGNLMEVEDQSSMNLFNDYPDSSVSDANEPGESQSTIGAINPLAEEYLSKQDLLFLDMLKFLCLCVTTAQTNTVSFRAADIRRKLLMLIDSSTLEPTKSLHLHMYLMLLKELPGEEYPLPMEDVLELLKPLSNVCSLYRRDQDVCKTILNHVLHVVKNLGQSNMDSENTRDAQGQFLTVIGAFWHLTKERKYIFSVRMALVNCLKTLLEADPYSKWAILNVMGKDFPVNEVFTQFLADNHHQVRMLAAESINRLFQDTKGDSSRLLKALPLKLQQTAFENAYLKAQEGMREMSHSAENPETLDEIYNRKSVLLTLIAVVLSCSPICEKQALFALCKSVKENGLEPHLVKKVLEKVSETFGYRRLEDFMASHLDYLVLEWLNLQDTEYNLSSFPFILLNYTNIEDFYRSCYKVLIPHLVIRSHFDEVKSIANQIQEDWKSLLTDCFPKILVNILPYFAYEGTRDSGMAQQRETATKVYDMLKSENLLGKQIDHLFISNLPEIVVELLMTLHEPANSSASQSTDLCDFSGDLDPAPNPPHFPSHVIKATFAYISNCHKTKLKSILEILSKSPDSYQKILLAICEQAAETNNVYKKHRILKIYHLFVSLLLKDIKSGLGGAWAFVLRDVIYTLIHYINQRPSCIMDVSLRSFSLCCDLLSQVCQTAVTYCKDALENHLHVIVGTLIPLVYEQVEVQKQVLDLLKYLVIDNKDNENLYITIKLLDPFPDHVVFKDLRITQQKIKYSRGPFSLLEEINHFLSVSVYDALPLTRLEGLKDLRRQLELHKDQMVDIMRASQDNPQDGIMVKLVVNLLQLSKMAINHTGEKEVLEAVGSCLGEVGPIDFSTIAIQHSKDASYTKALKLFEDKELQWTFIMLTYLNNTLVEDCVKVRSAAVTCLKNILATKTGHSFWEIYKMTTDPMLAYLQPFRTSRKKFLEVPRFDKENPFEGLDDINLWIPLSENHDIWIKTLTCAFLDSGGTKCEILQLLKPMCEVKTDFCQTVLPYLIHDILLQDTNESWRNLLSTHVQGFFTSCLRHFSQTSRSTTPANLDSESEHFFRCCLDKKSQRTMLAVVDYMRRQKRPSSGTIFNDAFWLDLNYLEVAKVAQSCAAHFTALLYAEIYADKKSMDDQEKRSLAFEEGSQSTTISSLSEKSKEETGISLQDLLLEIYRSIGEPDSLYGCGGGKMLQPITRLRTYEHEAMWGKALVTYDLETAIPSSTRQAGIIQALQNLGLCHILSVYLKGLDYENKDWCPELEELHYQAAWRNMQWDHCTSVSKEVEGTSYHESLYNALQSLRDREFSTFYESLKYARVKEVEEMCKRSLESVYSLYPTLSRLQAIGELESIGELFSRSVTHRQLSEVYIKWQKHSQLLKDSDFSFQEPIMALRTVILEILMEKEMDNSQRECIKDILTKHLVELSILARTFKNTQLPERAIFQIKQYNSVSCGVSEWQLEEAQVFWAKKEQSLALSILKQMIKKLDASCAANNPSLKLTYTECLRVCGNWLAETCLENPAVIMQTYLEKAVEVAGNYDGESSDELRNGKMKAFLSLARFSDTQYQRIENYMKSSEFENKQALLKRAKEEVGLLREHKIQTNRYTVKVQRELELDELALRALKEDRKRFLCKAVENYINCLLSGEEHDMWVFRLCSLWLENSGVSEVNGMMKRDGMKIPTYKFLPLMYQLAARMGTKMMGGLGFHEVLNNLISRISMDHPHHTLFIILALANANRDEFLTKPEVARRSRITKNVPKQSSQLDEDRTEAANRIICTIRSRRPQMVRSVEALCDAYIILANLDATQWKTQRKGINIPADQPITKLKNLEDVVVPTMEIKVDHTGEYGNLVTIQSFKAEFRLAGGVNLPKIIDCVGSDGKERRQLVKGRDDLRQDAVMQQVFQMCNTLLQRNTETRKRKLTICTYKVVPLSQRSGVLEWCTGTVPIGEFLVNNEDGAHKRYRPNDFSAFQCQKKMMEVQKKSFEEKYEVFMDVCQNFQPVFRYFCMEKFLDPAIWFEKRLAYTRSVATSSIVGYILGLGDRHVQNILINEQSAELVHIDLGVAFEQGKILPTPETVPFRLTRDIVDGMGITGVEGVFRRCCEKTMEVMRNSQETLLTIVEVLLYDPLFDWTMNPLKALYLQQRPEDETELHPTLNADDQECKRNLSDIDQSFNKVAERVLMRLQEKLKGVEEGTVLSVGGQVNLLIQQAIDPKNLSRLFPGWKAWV

ATR = target: T2, ATR (Homo sapiens, UniProt Q13535); details: A549 cells; cited from earlier work
T2 construct: various PI3K family kinases in A549 cells (data adapted from previous study); host or cells: A549 cells

PI3Kγ = target: T3, PI3Kγ (Homo sapiens, UniProt P48736); details: A549 cells; cited from earlier work
T3 construct: various PI3K family kinases in A549 cells (data adapted from previous study); host or cells: A549 cells
T3 sequence (P48736 whole entry): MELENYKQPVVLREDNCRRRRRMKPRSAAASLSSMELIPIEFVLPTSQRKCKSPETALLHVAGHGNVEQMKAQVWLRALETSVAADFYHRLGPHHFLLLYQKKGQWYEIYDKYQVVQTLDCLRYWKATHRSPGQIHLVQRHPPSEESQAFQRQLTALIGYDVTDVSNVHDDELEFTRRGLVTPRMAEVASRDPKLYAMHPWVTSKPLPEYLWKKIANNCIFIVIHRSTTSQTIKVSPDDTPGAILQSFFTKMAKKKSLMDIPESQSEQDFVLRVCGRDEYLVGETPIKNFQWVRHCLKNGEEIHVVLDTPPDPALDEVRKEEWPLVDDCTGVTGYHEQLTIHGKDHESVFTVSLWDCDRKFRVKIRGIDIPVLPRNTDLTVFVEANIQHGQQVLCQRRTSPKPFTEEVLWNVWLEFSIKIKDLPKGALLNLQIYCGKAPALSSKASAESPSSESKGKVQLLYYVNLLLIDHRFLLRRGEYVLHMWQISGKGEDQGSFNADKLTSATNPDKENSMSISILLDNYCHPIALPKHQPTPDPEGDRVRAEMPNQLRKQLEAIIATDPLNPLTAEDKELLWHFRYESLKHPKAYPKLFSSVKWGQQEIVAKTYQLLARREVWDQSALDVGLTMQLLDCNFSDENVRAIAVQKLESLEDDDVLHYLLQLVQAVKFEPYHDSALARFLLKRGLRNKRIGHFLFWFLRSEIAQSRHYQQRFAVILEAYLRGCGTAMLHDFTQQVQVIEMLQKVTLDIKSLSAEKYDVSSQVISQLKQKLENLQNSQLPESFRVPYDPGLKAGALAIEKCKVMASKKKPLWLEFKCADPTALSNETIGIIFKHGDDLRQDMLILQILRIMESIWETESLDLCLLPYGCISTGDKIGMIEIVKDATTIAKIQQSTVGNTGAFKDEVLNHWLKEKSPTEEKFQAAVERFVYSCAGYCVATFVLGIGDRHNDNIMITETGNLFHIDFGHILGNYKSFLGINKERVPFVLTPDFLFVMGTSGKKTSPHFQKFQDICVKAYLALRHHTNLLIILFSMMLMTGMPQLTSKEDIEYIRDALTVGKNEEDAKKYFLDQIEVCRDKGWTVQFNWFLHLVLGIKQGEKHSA

For COc1ccc([C@@H](O)c2cc(-c3ncnc4cc(N5CCOCC5)ccc34)c(F)cc2Cl)nn1 [M3814], the “concentration at which gene targeting is enhanced” value (CCR5 locus in PSCs) was “effective only at 1 μM”, the “effect on gene targeting vs untreated” value (HBB locus in PSCs) was “less prominent effect” and the “effect on gene targeting vs untreated” value (HBA1 locus in PSCs; 0.5 μM) was “less prominent effect”. The “concentration at which gene replacement is improved” value (HBA1 locus in PSCs; tested at 2 and 0.5 μM) was “effective only at the higher concentration”, the IC50 (ATM) was > 30 µM and the IC50 (ATR) was > 30 µM. The IC50 (PI3Kγ) was 1.59 µM.
